# ChEMBL document CHEMBL5729588, “Spiro-oxazolones” (2023)
# pKi: −log10 of the molar value.
# Biological target: Vasopressin V1a receptor (Homo sapiens, UniProt P37288)
# Assay: Pharmacological Assay: The human V1a receptor was cloned by RT-PCR from total human liver RNA. The coding sequence was subcloned in an expression vector after sequencing to confirm the identity of the amplified sequence. […] Cell membranes were prepared from HEK293 cells transiently transfected with the expression vector and grown in 20 liter fermenters with the following protocol. 50 g of cells are re-suspended in 30 ml freshly prepared ice cold Lysis buffer ([…] HEPES. 1 mM EDTA, 10 mM MgCl adjusted to pH=7.4+complete cocktail of protease inhibitor (Roche Diagnostics)). Homogenized with Polytron for 1 min and sonicated on ice for 2×2 minutes at 80% intensity (Vibracell sonicator). The preparation is centrifuged 20 min at 500 g at 4° C., the pellet is discarded and the supernatant centrifuged 1 hour at 43'000 g at 4° C. (19'000 rpm). The pellet is re-suspended in 12.5 ml Lysis buffer+12.5 ml Sucrose 20% and homogenized using a Polytron for 1-2 min. The protein concentration is determined by the Bradford method and aliquots are stored at −80° C. until use. For binding studies 60 mg Yttrium silicate SPA beads (Amersham) are mixed with an aliquot of membrane in binding buffer (50 mM Tris, 120 mM NaCl, 5 mM KCl, 2 mM CaCl, 10 mM MgCl) for 15 minutes with mixing. 50 μl of bead/membrane mixture is then added to each well of a 96 well plate, followed by […] of 4 nM 3H-Vasopressin (American Radiolabeled Chemicals). For total binding measurement 100 μl of binding buffer are added to the respective wells, for non-specific binding 100 μl of 8.4 mM cold vasopressin and for compound testing 100 μl of a serial dilution of each compound in 2% DMSO. The plate is incubated 1 h at room temperature, centrifuged 1 min at 1000 g and counted on a Packard Top-Count. Non-specific binding counts are subtracted from each well and data is normalized to the maximum specific binding set at 100%. To calculate an IC 50 the curve is fitted using a non-linear regression model (XLfit) and the K, is calculated using the Cheng-Prussoff equation.
# Chain of Vasopressin V1a receptor (P37288 whole entry): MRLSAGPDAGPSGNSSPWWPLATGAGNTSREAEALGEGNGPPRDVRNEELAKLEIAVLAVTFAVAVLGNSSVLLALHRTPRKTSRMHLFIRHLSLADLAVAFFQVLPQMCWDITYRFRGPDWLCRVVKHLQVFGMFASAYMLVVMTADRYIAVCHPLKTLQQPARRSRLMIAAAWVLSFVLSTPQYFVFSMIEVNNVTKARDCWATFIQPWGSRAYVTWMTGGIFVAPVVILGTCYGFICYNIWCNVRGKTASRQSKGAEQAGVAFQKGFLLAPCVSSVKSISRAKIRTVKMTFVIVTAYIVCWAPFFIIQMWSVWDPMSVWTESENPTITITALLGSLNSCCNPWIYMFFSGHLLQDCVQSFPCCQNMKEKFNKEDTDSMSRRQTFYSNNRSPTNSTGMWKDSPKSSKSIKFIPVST
row,pKi,SMILES
1,7.90,Cc1cc2c(cn1)C(=O)OC21CCN(C2=NC(=O)C3(Cc4ccccc4C3)O2)CC1
2,8.00,Cc1cc2c(cn1)COC21CCN(C2=NC(=O)C3(Cc4ccccc4C3)O2)CC1
3,9.00,O=C1OC2(CCN(C3=NC(=O)C4(Cc5ccccc5C4)O3)CC2)c2ccccc21
4,9.00,O=C1N=C(N2CCC3(CC2)OCc2ccccc23)OC12CCc1ccccc1C2 (centres undefined)
5,8.50,Cc1cc2c(cn1)C1(CCN(C3=NC(=O)C4(Cc5ccccc5C4)O3)CC1)OC2
6,9.00,O=C1N=C(N2CCC3(CC2)OCc2ccccc23)OC12Cc1ccc(Cl)cc1C2 (centres undefined)
7,7.30,O=C1N=C(N2CCC3(CC2)OCc2ccccc23)OC12CCCc1ccccc12 (centres undefined)
8,7.80,Cc1cc2c(cn1)C1(CCN(C3=NC(=O)C4(Cc5ccccc5C4)O3)CC1)OC2=O
9,9.10,O=C1OC2(CCN(C3=NC(=O)C4(Cc5ccccc5C4)O3)CC2)c2cc(O)ccc21
